≈ marks a conversion by molar mass, not a printed value.
molecular target: MDR1 (Homo sapiens (Human), UniProt P08183); assay: in vitro; settings: MDCK-MDR1
Sequence (P08183 whole entry): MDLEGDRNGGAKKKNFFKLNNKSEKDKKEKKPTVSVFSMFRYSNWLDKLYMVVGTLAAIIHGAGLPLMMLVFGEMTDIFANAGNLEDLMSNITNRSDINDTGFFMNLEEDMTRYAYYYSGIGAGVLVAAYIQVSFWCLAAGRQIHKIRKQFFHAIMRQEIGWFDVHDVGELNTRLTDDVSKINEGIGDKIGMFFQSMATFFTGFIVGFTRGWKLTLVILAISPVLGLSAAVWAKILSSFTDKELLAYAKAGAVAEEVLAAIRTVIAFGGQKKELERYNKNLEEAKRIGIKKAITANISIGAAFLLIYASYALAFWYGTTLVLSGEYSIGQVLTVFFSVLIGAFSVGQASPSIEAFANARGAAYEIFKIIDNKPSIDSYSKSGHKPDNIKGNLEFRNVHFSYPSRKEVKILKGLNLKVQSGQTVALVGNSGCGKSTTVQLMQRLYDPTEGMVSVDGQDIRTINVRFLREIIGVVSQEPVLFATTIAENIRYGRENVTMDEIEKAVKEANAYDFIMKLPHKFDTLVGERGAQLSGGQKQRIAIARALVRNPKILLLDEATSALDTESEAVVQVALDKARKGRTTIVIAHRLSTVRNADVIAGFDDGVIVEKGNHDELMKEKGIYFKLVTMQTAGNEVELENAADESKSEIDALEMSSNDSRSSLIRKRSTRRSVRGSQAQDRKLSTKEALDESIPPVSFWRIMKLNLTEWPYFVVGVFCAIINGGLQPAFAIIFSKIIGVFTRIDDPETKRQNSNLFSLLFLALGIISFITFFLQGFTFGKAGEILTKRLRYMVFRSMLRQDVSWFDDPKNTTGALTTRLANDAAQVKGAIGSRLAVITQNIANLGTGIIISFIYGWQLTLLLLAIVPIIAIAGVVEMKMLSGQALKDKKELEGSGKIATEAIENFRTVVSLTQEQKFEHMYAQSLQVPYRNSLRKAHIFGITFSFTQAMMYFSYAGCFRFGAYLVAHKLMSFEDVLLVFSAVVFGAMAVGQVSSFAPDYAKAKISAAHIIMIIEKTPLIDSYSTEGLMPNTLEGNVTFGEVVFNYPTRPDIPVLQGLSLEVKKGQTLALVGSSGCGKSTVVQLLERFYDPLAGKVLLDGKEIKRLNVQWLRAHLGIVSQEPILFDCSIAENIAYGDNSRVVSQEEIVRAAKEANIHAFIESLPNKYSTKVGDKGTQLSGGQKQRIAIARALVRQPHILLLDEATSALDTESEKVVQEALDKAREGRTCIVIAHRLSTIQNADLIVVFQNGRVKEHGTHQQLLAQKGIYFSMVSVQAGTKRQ

| efflux ratio at 120 min, 1 μM | Compound |
| --- | --- |
| 0.7 | CC(C)Oc1cc2nc([C@]34CC[C@](C)(C3)OC4)cn2cc1C(=O)Nc1cccc(C(F)F)n1 (single isomer, unassigned) [Comparator 3A, reference compound] |
| 2.3 | Cc1cnc2c(NC(=O)c3cn4cc([C@@]56CC[C@@](C)(C5)OC6)nc4nc3OC(C)C)cnn2c1 (single isomer, unassigned) [Comparator 4B, reference compound] |
| 38.2 | COCC12CC(c3cn4cc(C(=O)Nc5cccn([C@@H]6C[C@@H]6F)c5=O)c(OC(C)C)nc4n3)(CO1)C2 [Example 162, N-(1-((1R,2S)-2-fluorocyclopropyl)-2-oxo-1,2-dihydropyridin-3-yl)-7-isopropoxy-2-(1-(methoxymethyl)-2-oxabicyclo[2.1.1]hexan-4-yl)imidazo[1,2-a]pyrimidine-6-carboxamide] |

| Compound | efflux ratio at 120 min, 1 μM |
| --- | --- |
| CC[C@H](C)Oc1nc2nc(C34COC(C)(C3)C4)cn2cc1C(=O)Nc1cccn([C@@H]2C[C@@H]2F)c1=O (mixture of isomers) [Example 42, 7-((S)-sec-butoxy)-N-(1-(cis-2-fluorocyclopropyl)-2-oxo-1,2-dihydropyridin-3-yl)-2-(1-methyl-2-oxabicyclo[2.1.1]hexan-4-yl)imidazo[1,2-a]pyrimidine-6-carboxamide] | 10.8 |
| CC[C@H](C)Oc1cc2nc(C34COC(C)(C3)C4)cn2cc1C(=O)Nc1cccn(C2CC2F)c1=O (mixture of isomers) [Example 96, 7-((S)-sec-butoxy)-N-(1-cis-(2-fluorocyclopropyl)-2-oxo-1,2-dihydropyridin-3-yl)-2-(1-methyl-2-oxabicyclo[2.1.1]hexan-4-yl)imidazo[1,2-a]pyridine-6-carboxamide] | 10.4 |

tested on: not listed separately; assay: Kinetic solubility assay (CLND), pH 6.8; assay type: physicochemical; settings: aqueous buffer, kinetic from dmso stock; potassium phosphate buffer pH 6.8, 2% DMSO, 24 hours at ambient temperature

| solubility kinetic at 24 h | Compound |
| --- | --- |
| 48.4 µg/mL (≈ 107 µM) | CC(C)Oc1nc2nc(C34COC(C3)C4)cn2cc1C(=O)Nc1cccn([C@@H]2C[C@@H]2F)c1=O (racemic) [Example 87, (rac)-Cis-2-(2-oxabicyclo[2.1.1]hexan-4-yl)-N-(1-(2-fluorocyclopropyl)-2-oxo-1,2-dihydropyridin-3-yl)-7-isopropoxyimidazo[1,2-a]pyrimidine-6-carboxamide] |
| 35.3 µg/mL (≈ 76.2 µM) | CC(C)Oc1nc2nc(C34COC(C)(C3)C4)cn2cc1C(=O)Nc1cccn([C@@H]2C[C@H]2C)c1=O (racemic) [Example 95, (rac)-trans-7-isopropoxy-2-(1-methyl-2-oxabicyclo[2.1.1]hexan-4-yl)-N-(1-(2-methylcyclopropyl)-2-oxo-1,2-dihydropyridin-3-yl)imidazo[1,2-a]pyrimidine-6-carboxamide] |
| 9 µg/mL (≈ 18.7 µM) | CC(C)Oc1nc2nc([C@]34CC[C@](CF)(C3)OC4)cn2cc1C(=O)Nc1cccn(C2CC2)c1=O (single isomer, unassigned) [Example 47] |
| 20.7 µg/mL (≈ 45.6 µM) | CC(C)Oc1nc2nc(C34COC(C3)C4)cn2cc1C(=O)Nc1cccn([C@@H]2C[C@@H]2F)c1=O (single isomer, unassigned) [Example 88] |
| 23.9 µg/mL (≈ 52.7 µM) | CC(C)Oc1nc2nc(C34COC(C3)C4)cn2cc1C(=O)Nc1cccn([C@H]2C[C@H]2F)c1=O (single isomer, unassigned) [Example 89] |
| 76.7 µg/mL (≈ 159 µM) | CC(C)Oc1nc2nc([C@]34CC[C@](C)(C3)OC4)cn2cc1C(=O)Nc1cccn([C@@H]2C[C@H]2F)c1=O (single isomer, unassigned) [Example 120] |
| 33.9 µg/mL (≈ 70.4 µM) | CC(C)Oc1nc2nc([C@]34CC[C@](C)(C3)OC4)cn2cc1C(=O)Nc1cccn([C@H]2C[C@@H]2F)c1=O (single isomer, unassigned) [Example 121] |
| 48.8 µg/mL (≈ 101 µM) | CC(C)Oc1nc2nc([C@@]34CC[C@@](C)(C3)OC4)cn2cc1C(=O)Nc1cccn([C@@H]2C[C@H]2F)c1=O (single isomer, unassigned) [Example 122] |
| 73 µg/mL (≈ 152 µM) | CC(C)Oc1nc2nc([C@@]34CC[C@@](C)(C3)OC4)cn2cc1C(=O)Nc1cccn([C@H]2C[C@@H]2F)c1=O (single isomer, unassigned) [Example 123] |
| 37.2 µg/mL (≈ 79.7 µM) | CC(C)Oc1cc2nc(C34COC(C)(C3)C4)cn2cc1C(=O)Nc1cccn([C@@H]2C[C@H]2F)c1=O (single isomer, unassigned) [Example 154] |
| 62.8 µg/mL (≈ 135 µM) | CC(C)Oc1nc2nc(C34COC(C)(C3)C4)cn2cc1C(=O)Nc1cccn([C@@H]2C[C@H]2C)c1=O (single isomer, unassigned) [Example 156] |
| 6.8 µg/mL (≈ 14.1 µM) | CC(C)Oc1nc2nc(C34CCC(CF)(C3)OC4)cn2cc1C(=O)Nc1cccn(C2CC2)c1=O (stereo not shown) [Example 45, N-(1-cyclopropyl-2-oxo-1,2-dihydropyridin-3-yl)-2-(1-(fluoromethyl)-2-oxabicyclo[2.2.1]heptan-4-yl)-7-isopropoxyimidazo[1,2-a]pyrimidine-6-carboxamide] |
| 66 µg/mL (≈ 133 µM) | COCC12CC(c3cn4cc(C(=O)Nc5cccn([C@H]6C[C@H]6F)c5=O)c(OC(C)C)nc4n3)(CO1)C2 [Example 163, N-(1-((1S,2R)-2-fluorocyclopropyl)-2-oxo-1,2-dihydropyridin-3-yl)-7-isopropoxy-2-(1-(methoxymethyl)-2-oxabicyclo[2.1.1]hexan-4-yl)imidazo[1,2-a]pyrimidine-6-carboxamide] |

Further lines, the compound ahead of its results:

| Compound | solubility kinetic at 24 h |
| --- | --- |
| CC[C@H](C)Oc1nc2nc(C34COC(C)(C3)C4)cn2cc1C(=O)Nc1cccn([C@@H]2C[C@@H]2F)c1=O (mixture of isomers) [Example 42, 7-((S)-sec-butoxy)-N-(1-(cis-2-fluorocyclopropyl)-2-oxo-1,2-dihydropyridin-3-yl)-2-(1-methyl-2-oxabicyclo[2.1.1]hexan-4-yl)imidazo[1,2-a]pyrimidine-6-carboxamide] | 72.5 µg/mL |
| CC[C@H](C)Oc1cc2nc(C34COC(C)(C3)C4)cn2cc1C(=O)Nc1cccn(C2CC2F)c1=O (mixture of isomers) [Example 96, 7-((S)-sec-butoxy)-N-(1-cis-(2-fluorocyclopropyl)-2-oxo-1,2-dihydropyridin-3-yl)-2-(1-methyl-2-oxabicyclo[2.1.1]hexan-4-yl)imidazo[1,2-a]pyridine-6-carboxamide] | 75.7 µg/mL |
| CC(C)Oc1cc2nc(C34COC(C)(C3)C4)cn2cc1C(=O)Nc1cccn([C@@H]2C[C@@H]2F)c1=O (racemic) [Example 97, (rac)-Cis-N-(1-(2-fluorocyclopropyl)-2-oxo-1,2-dihydropyridin-3-yl)-7-isopropoxy-2-(1-methyl-2-oxabicyclo[2.1.1]hexan-4-yl)imidazo[1,2-a]pyridine-6-carboxamide] | 59.5 µg/mL (≈ 128 µM) |
| CC(C)Oc1cc2nc([C@]34CC[C@](C)(C3)OC4)cn2cc1C(=O)Nc1cccc(C(F)F)n1 (single isomer, unassigned) [Comparator 3A, reference compound] | 0.8 µg/mL (≈ 1.75 µM) |
| Cc1cnc2c(NC(=O)c3cn4cc([C@@]56CC[C@@](C)(C5)OC6)nc4nc3OC(C)C)cnn2c1 (single isomer, unassigned) [Comparator 4B, reference compound] | 2 µg/mL (≈ 4.33 µM) |
| CC(C)Oc1nc2nc([C@]34CC[C@](C)(C3)OC4)cn2cc1C(=O)Nc1cccn(C2CC2)c1=O (single isomer, unassigned) [Example 13] | 20.3 µg/mL (≈ 43.8 µM) |
| CCC12CC(c3cn4cc(C(=O)Nc5cccn(C6CC6)c5=O)c(OC(C)C)nc4n3)(CO1)C2 [Example 31] | 24.2 µg/mL (≈ 52.2 µM) |
| CC(C)Oc1nc2nc(C34COC(C)(C3)C4)cn2cc1C(=O)Nc1ccnn(C2CC2)c1=O [Example 71, N-(2-cyclopropyl-3-oxo-2,3-dihydropyridazin-4-yl)-7-isopropoxy-2-(1-methyl-2-oxabicyclo[2.1.1]hexan-4-yl)imidazo[1,2-a]pyrimidine-6-carboxamide] | 8.9 µg/mL (≈ 19.8 µM) |
| CC(C)Oc1nc2nc(C34COC(C)(C3)C4)cn2cc1C(=O)Nc1cccn(C2C[C@]2(C)C(F)F)c1=O (stereo partly drawn) [Example 144, N-(1-((1S,2S)-2-(difluoromethyl)-2-methylcyclopropyl)-2-oxo-1,2-dihydropyridin-3-yl)-7-isopropoxy-2-(1-methyl-2-oxabicyclo[2.1.1]hexan-4-yl)imidazo[1,2-a]pyrimidine-6-carboxamide] | 34.4 µg/mL (≈ 67 µM) |

same assay, conditions: potassium phosphate buffer pH 6.8, 2% DMSO, 24 hours at ambient temperature

| Compound | pH 6.8 Solubility (ug/mL) |
| --- | --- |
| COC[C@]12C[C@](c3cn4cc(C(=O)Nc5cccn(C6CC6F)c5=O)c(OC(C)C)nc4n3)(CO1)C2 (mixture of isomers) [Example 90, (rac)-Cis-N-(1-(2-fluorocyclopropyl)-2-oxo-1,2-dihydropyridin-3-yl)-7-isopropoxy-2-(1-(methoxymethyl)-2-oxabicyclo[2.1.1]hexan-4-yl)imidazo[1,2-a]pyrimidine-6-carboxamide] | 74.8 ug/mL |

Source: patent publication US20240116922A1, “IMIDAZO[1,2-A]PYRIDINE DERIVATIVES AS IRAK4 INHIBITORS AND THEIR USE IN THE TREATMENT OF DISEASE” (BIOGEN MA INC., priority 2020, published 2024)
